System: rat anterior pituitary cells
Test: in vitro inhibition of growth hormone release from dispersed rat anterior pituitary cells (radioimmunoassay)
Format: cell-based
Conditions: rat anterior pituitary cells 4 days in culture, incubated 5 hours at 37° C., potency from ED50 relative to somatostatin
Description: Meyers et al., Biochem. Biophys. Res. Commun., 74, 630(1977). In this method, the tetradecapeptides of this invention are shown to inhibit the release of radioimmunoassayable growth hormone in vitro from enzymatically dispersed rat anterior pituitary cells prepared as described by F. Labrie et al., Sixth Karolinska Symp. on Res. Meth. in Reprod. Endocrinol. (W. Dozfalusy, Ed.), pp 301-328(1973). Following four days in culture, the cells are washed and incubated for five hours at 37° C. in Dulbecco-modified Eagle's medium in the presence or absence of increasing concentrations of each tetradecapeptide analog. Growth hormone levels are determined by double antibody radioimmunoassay, method described by C. A. Birge et al., Endocrinol., 81, 195-204(1967), for rat growth hormone using the NIAMDD Rat GH RIA kit. The dose required for a 50% inhibition of growth hormone release (ED50) is calculated for each analog by the method of D. Rodbard, Endocrinol., 94, 1427-1437(1974). The potency of the tetradecapeptide analogs of this invention relative to somatostatin is illustrated in table I.

Compound	Growth Hormone Release-Inhibiting Activity, Relative to Somatostatin [%]
C[C@H](N)C(=O)NCC(=O)N[C@H]1CSSC[C@@H](C(=O)O)NC(=O)[C@H](CO)NC(=O)[C@H]([C@@H](C)O)NC(=O)[C@H](Cc2ccccc2)NC(=O)[C@H]([C@@H](C)O)NC(=O)[C@H](CCCCN)NC(=O)[C@@H](Cc2c[nH]c3ccc(F)cc23)NC(=O)[C@H](Cc2ccccc2)NC(=O)[C@H](Cc2ccccc2)NC(=O)[C@H](CC(N)=O)NC(=O)[C@H](CCCCN)NC1=O [Example D-5-F-Trp, cyclic[3-14 disulfide] of L-alanyl-glycyl-L-cysteinyl-L-lysyl-L-asparaginyl-L-phenylalanyl-L-phenylalanyl-D-5-fluorotryptophyl-L-lysyl-L-threonyl-L-phenylalanyl-L-threonyl-L-seryl-L-cysteine]	2499
cyclic[3-14 disulfide] of L-alanyl-glycyl-L-cysteinyl-L-asparaginyl-L-lysyl-L-phenylalanyl-L-phenylalanyl-L-5-fluorotryptophyl-L-lysyl-L-threonyl-L-phenylalanyl-L-threonyl-L-seryl-L-cysteine [Example L-5-F-Trp]	476

Reference: US4224199A, “Somatostatin analogs having a substituted tryptophyl residue in position eight” (priority 1978, dated 1980)
